In PMC3436960 (Biochemistry, 2012):

Assays:
[1] = biological target: T1, S. typhimurium OMP synthase (orotate phosphoribosyltransferase) (Salmonella enterica, UniProt P08870); experiment: equilibrium binding by centrifugal filtration
T1 sequence (P08870 2-213): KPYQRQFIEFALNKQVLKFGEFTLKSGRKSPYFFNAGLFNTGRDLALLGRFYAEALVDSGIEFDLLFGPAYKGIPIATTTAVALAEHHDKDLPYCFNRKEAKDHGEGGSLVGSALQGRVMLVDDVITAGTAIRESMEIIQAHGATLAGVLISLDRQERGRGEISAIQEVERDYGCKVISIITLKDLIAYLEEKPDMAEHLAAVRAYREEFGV

[2] = biological target: S. typhimurium OMP synthase (orotate phosphoribosyltransferase) (Salmonella enterica, UniProt P08870, DEL102-102/DEL106-106); experiment: biochemical
[3] = biological target: S. typhimurium OMP synthase (orotate phosphoribosyltransferase) (Salmonella enterica, UniProt P08870, K103A); experiment: biochemical
[4] = biological target: S. typhimurium OMP synthase (orotate phosphoribosyltransferase) (Salmonella enterica, UniProt P08870, H105A); experiment: biochemical
[5] = biological target: S. typhimurium OMP synthase (orotate phosphoribosyltransferase) (Salmonella enterica, UniProt P08870, E107A); experiment: biochemical
[6] = biological target: S. typhimurium OMP synthase (orotate phosphoribosyltransferase) (Salmonella enterica, UniProt P08870, E101A); experiment: biochemical
[7] = biological target: S. typhimurium OMP synthase (orotate phosphoribosyltransferase) (Salmonella enterica, UniProt P08870, D104A); experiment: biochemical
purified protein [8] = substrate: O=C(O)c1cc(=O)[nH]c(=O)n1[C@@H]1O[C@H](COP(=O)(O)O)[C@@H](O)[C@H]1O; experiment: purified protein; details: 2 mM PPi, 3 mM MgCl2, 80 mM Tris-Cl, pH 8.0, 30°C
purified protein [9] = substrate: O=P(O)(O)OP(=O)(O)O; experiment: purified protein; details: 100 μM OMP, 3 mM MgCl2, 80 mM Tris-Cl, pH 8.0, 30°C
purified protein [10] = substrate: O=P(O)(O)OC[C@H]1O[C@H](OP(=O)(O)OP(=O)(O)O)[C@H](O)[C@@H]1O; experiment: purified protein; format: biochemical, Salmonella enterica; details: 300 μM orotate, 6 mM MgCl2, 75 mM Tris-Cl, pH 8.0, 30°C
purified protein [11] = substrate: O=C(O)c1cc(=O)[nH]c(=O)[nH]1; experiment: purified protein; format: biochemical, Salmonella enterica; details: 1 mM PRPP, 6 mM MgCl2, 75 mM Tris-Cl, pH 8.0, 30°C

**Q.** O=C(O)c1cc(=O)[nH]c(=O)n1[C@@H]1O[C@H](COP(=O)(O)O)[C@@H](O)[C@H]1O [OMP] was tested. Which Kd [1] did it give?
**A.** 3.1 ± 0.1 µM

**Q.** And the Kd [2]?
**A.** 2 ± 0.1 µM

**Q.** And the Kd [3]?
**A.** 3 ± 0.1 µM

**Q.** What about the Kd [4] of the same molecule?
**A.** 4 ± 0.3 µM

**Q.** And the Kd [5]?
**A.** 6.5 ± 0.8 µM

**Q.** What about the Kd [6] of the same molecule?
**A.** 12 ± 2 µM

**Q.** Which results are given for O=P(O)(O)OC[C@H]1O[C@H](OP(=O)(O)OP(=O)(O)O)[C@H](O)[C@@H]1O [PRPP]?
**A.** Kd [1]: 33 ± 0.5 µM; Kd [7]: 13 ± 0.7 µM; Kd [3]: 125 ± 11 µM; Kd [4]: 92 ± 11 µM; Kd [5]: 7.1 ± 0.5 µM; Kd [6]: 36 ± 3 µM

**Q.** With O=C(O)c1cc(=O)[nH]c(=O)[nH]1 [Orotate] as the molecule, how does the Kd [1] read?
**A.** 280 ± 30 µM

B1: S. typhimurium OMP synthase (orotate phosphoribosyltransferase) (Salmonella enterica subsp. enterica serovar Typhimurium str. LT2) (protein)
chain: T1 sequence (P08870 2-213)
**Q.** For B1, which Km (purified protein [8]) is on record?
**A.** 3 ± 0.3 µM

**Q.** What about the Km (purified protein [9]) of the same molecule?
**A.** 31 ± 3 µM

**Q.** What about the kcat (purified protein [9]) of the same molecule?
**A.** 18 ± 0.3 s⁻¹

**Q.** What about the kcat/Km (purified protein [9]) of the same molecule?
**A.** 580000 M⁻¹ s⁻¹

**Q.** What about the Km (purified protein [10]) of the same molecule?
**A.** 18 ± 5 µM

**Q.** What about the kcat (purified protein [10]) of the same molecule?
**A.** 56 ± 2.5 s⁻¹

**Q.** What about the kcat/Km (purified protein [10]) of the same molecule?
**A.** 3.1e+06 M⁻¹ s⁻¹

**Q.** What about the Km (purified protein [11]) of the same molecule?
**A.** 19 ± 3 µM

**Q.** And the kcat (purified protein [11])?
**A.** 56 ± 2.5 s⁻¹

**Q.** What about the kcat/Km (purified protein [11]) of the same molecule?
**A.** 3e+06 M⁻¹ s⁻¹
